Source: article PMC12245108 (Advanced Science, 2025)
Where a SMILES comes first, the peptide text is derived from it. The star is where a group is joined. NHCH2CN = N#CCN*

Key:
MPXV I7L protease = MPXV I7L protease (Monkeypox virus, UniProt Q8V512); assay: biochemical; settings: for inhibition at 100 µM: pH 7.5, read-out: inhibition rate
Vaccinia virus = assay: microbe, parasite or virus in culture; assay type: cell-based; settings: Orthopoxvirus vaccinia, HeLa, 24 h, read-out: EC50 for vaccinia virus replication inhibition
in vitro = settings: human

SMILES | inhibition at 100 µM (MPXV I7L protease) | IC50 (MPXV I7L protease) | also measured
CC(C)(C)NC(=O)N[C@H](C(=O)N1C[C@H]2[C@@H]([C@H]1C(=O)NC(CC1CCC1)C(=O)C(N)=O)C2(C)C)C(C)(C)C (stereo partly shown) [Boceprevir, reference compound] | < 50% |  | 
CCCCCCCCCCCCCCCCOCCCOP(=O)(O)CO[C@H](CO)Cn1ccc(N)nc1=O [Brincidofovir, reference compound] |  |  | EC50 (Vaccinia virus): 900 nM
Cn1cnc(Cn2c(=O)[nH]/c(=N\c3cc4cn(C)nc4cc3Cl)n(Cc3cc(F)c(F)cc3F)c2=O)n1 [Ensitrelvir, reference compound] | < 50% |  | 
CC(C)C[C@H](NC(=O)OCc1ccccc1)C(=O)N[C@@H](C[C@@H]1CCNC1=O)C(O)S(=O)(=O)[O-].[Na+] (stereo partly shown) [GC376, reference compound] |  |  | inhibition rate (MPXV I7L protease; pH 7.5): below 50%
Cc1cccc(C)c1OCC(=O)N[C@@H](Cc1ccccc1)[C@@H](O)C[C@H](Cc1ccccc1)NC(=O)[C@H](C(C)C)N1CCCNC1=O [Lopinavir, reference compound] | < 50% |  | 
CCCC[C@H](NC(=O)[C@@H]1[C@@H]2[C@H](CN1C(=O)[C@@H](NC(=O)NC1(CS(=O)(=O)C(C)(C)C)CCCCC1)C(C)(C)C)C2(C)C)C(=O)C(=O)NC1CC1 [Narlaprevir, reference compound] | < 50% |  | 
CC(C)(C)[C@H](NC(=O)C(F)(F)F)C(=O)N1C[C@H]2[C@@H]([C@H]1C(=O)N[C@H](C#N)C[C@@H]1CCNC1=O)C2(C)C [Nirmatrelvir, reference compound] | < 50% |  | 
CC(C)c1nc(CN(C)C(=O)N[C@H](C(=O)N[C@@H](Cc2ccccc2)C[C@H](O)[C@H](Cc2ccccc2)NC(=O)OCc2cncs2)C(C)C)cs1 [Ritonavir, reference compound] | < 50% |  | 
CCC[C@H](NC(=O)[C@@H]1[C@H]2CCC[C@H]2CN1C(=O)[C@@H](NC(=O)[C@@H](NC(=O)c1cnccn1)C1CCCCC1)C(C)(C)C)C(=O)C(=O)NC1CC1 [Telaprevir, reference compound] | < 50% |  | 
CC[C@H](C)[C@H](NC(C)=O)C(=O)N[C@@H](Cc1ccccc1)C(=O)N[C@@H](Cc1ccccc1)C(=O)N[C@@H](C)C(=O)NCC#N [compound 1, (2S,3S)-2-acetamido-N-((S)-1-(((S)-1-(((S)-1-((cyanomethyl)amino)-1-oxopropan-2-yl)amino)-1-oxo-3-phenylpropan-2-yl)amino)-1-oxo-3-phenylpropan-2-yl)-3-methylpentanamide] (Ac-IFFA-NHCH2CN) |  | 171 nM | 
CC[C@H](C)[C@H](NC(=O)[C@@H](NC(=O)[C@H](CCSC)NC(C)=O)C(C)C)C(=O)N[C@@H](C)C(=O)NCC#N [compound 2, (2S,3S)-2-((S)-2-((S)-2-acetamido-4-(methylthio)butanamido)-3-methylbutanamido)-N-((S)-1-((cyanomethyl)amino)-1-oxopropan-2-yl)-3-methylpentanamide] (Ac-MVIA-NHCH2CN) |  | 132 nM | 
CC(=O)N[C@@H](Cc1ccc(O)cc1)C(=O)N[C@@H](Cc1ccccc1)C(=O)N[C@@H](Cc1ccc(O)cc1)C(=O)N[C@@H](C)C(=O)NCC#N [compound 3, (S)-2-acetamido-N-((S)-1-(((S)-1-(((S)-1-((cyanomethyl)amino)-1-oxopropan-2-yl)amino)-3-(4-hydroxyphenyl)-1-oxopropan-2-yl)amino)-1-oxo-3-phenylpropan-2-yl)-3-(4-hydroxyphenyl)propanamide] (Ac-YFYA-NHCH2CN) |  | 79 ± 15 nM | 
CC[C@H](C)[C@H](NC(C)=O)C(=O)N[C@H](C(=O)N[C@@H](CC(N)=O)C(=O)N[C@@H](C)C(=O)NCC#N)[C@@H](C)O [compound 4, (S)-2-((2S,3R)-2-((2S,3S)-2-acetamido-3-methylpentanamido)-3-hydroxybutanamido)-N^1-((S)-1-((cyanomethyl)amino)-1-oxopropan-2-yl)succinamide] (Ac-ITNA-NHCH2CN) |  | 1620 nM | 
CC(=O)N[C@@H](CC(=O)O)C(=O)N[C@@H](Cc1ccccc1)C(=O)N[C@@H](CO)C(=O)N[C@@H](C)C(=O)NCC#N [compound 6, (4S,7S,10S,13S)-13-acetamido-10-benzyl-1-cyano-7-(hydroxymethyl)-4-methyl-3,6,9,12-tetraoxo-2,5,8,11-tetraazapentadecan-15-oic acid] (Ac-DFSA-NHCH2CN) |  | 74 ± 29 nM | 
CC[C@H](C)[C@H](NC(=O)[C@H](Cc1ccc(O)cc1)NC(=O)[C@@H]1CCCN1C(C)=O)C(=O)N[C@@H](C)C(=O)NCC#N [compound 7, (S)-1-acetyl-N-((S)-1-(((2S,3S)-1-(((S)-1-((cyanomethyl)amino)-1-oxopropan-2-yl)amino)-3-methyl-1-oxopentan-2-yl)amino)-3-(4-hydroxyphenyl)-1-oxopropan-2-yl)pyrrolidine-2-carboxamide] (Ac-PYIA-NHCH2CN) |  | 241 ± 29 nM | 
CC[C@H](C)[C@H](NC(C)=O)C(=O)N[C@@H](Cc1ccccc1)C(=O)N[C@@H](CC(N)=O)C(=O)N[C@@H](C)C(=O)NCC#N [compound 8, (S)-2-((S)-2-((2S,3S)-2-acetamido-3-methylpentanamido)-3-phenylpropanamido)-N^1-((S)-1-((cyanomethyl)amino)-1-oxopropan-2-yl)succinamide] (Ac-IFNA-NHCH2CN) |  | 71 nM | 
CC[C@H](C)[C@H](NC(=O)[C@@H](NC(C)=O)C(C)C)C(=O)N[C@@H](C)C(=O)NCC#N [compound 9, (2S,3S)-2-((S)-2-acetamido-3-methylbutanamido)-N-((S)-1-((cyanomethyl)amino)-1-oxopropan-2-yl)-3-methylpentanamide] |  | 400 nM | 
CC[C@H](C)[C@H](NC(=O)Cc1ccccc1)C(=O)N[C@@H](C)C(=O)NCC#N [compound 10, (2S,3S)-N-((S)-1-((cyanomethyl)amino)-1-oxopropan-2-yl)-3-methyl-2-(2-phenylacetamido)pentanamide] |  | 122 nM | EC50 (Vaccinia virus): 6300 nM; CC50 (in vitro): > 400000 nM; cytotoxicity (HeLa cells): no detectable cytotoxicity
CC[C@H](C)[C@H](NC(=O)[C@@H](C)c1ccccc1)C(=O)N[C@@H](C)C(=O)NCC#N [compound 11, (2S,3S)-N-((S)-1-((cyanomethyl)amino)-1-oxopropan-2-yl)-3-methyl-2-((S)-2-phenylpropanamido)pentanamide] |  | 69 nM | EC50 (Vaccinia virus): 6000 nM; CC50 (in vitro): > 400000 nM; cytotoxicity (HeLa cells): no detectable cytotoxicity
